Measured values taken from patent publication US8440713B2, “[1]benzothieno[3,2-B][1]benzothiophene compound and method for producing the same, and organic electronic device using the same” (Ricoh Company, Ltd., priority 2008, dated 2013).

Experiment: Solubility of the precursor in chloroform, toluene and THF (solution left to stand, precipitation observed)
Assay type: physicochemical
Settings: toluene and THF, 1.0% by mass and 5.0% by mass, filtered, left to stand over night at room temperature
Protocol: Precursor 1 synthesized in Example 1 was dissolved respectively in chloroform, toluene and THF so as to be contained therein in concentrations of 1.0% by mass and 5.0% by mass, and then passed through a filter so as to prepare each solution.
The evaluation criteria of the solubility in Table 1 are as follows:
A: No precipitation of a solute was observed when a precursor was dissolved in each solution so as to be contained in a concentration of 5% by mass, and then left to stand for 12 hours at a room temperature.
B: No precipitation of a solute was observed when a precursor was dissolved in each solution so as to be contained in a concentration of 1% by mass, and then left to stand for 12 hours at a room temperature.
C: Precipitation of a solute was observed when a precursor was dissolved in each solution so as to be contained in a concentration of 1% by mass, and then left to stand for 12 hours at a room temperature.

Row | Structure (SMILES) | solute separation from solution
1 | CCCCCCC(CCCC)C(=O)OC(CC)c1ccc(-c2ccc3c(c2)sc2c4ccc(-c5ccc(C(CC)OC(=O)C(CCCC)CCCCCC)s5)cc4sc32)s1 (stereo not shown) [Example 13] | solute separation was not observed at all in any solvent and concentration

Same assay, conditions: toluene, THF, 1% or 5% by mass, left to stand 12 hours at room temperature

Row | Structure (SMILES) | Solubility
2 | c1ccc(-c2ccc3c(c2)sc2c4ccc(-c5ccccc5)cc4sc32)cc1 [Comparative Example 1, 2,7-diphenyl [1]benzothieno[3,2-b][1]benzothiophene, reference compound] | C (Precipitation of a solute was observed when a precursor was dissolved in each solution so as to be contained in a concentration of 1% by mass, and then left to stand for 12 hours at a room temperature.)
3 | CCCCCCCCc1ccc2c(c1)sc1c3ccc(CCCCCCCC)cc3sc21 [Comparative Example 2, 2,7-dioctyl[1]benzothieno[3,2-b][1]benzothiophene, reference compound] | B (No precipitation of a solute was observed when a precursor was dissolved in each solution so as to be contained in a concentration of 1% by mass, and then left to stand for 12 hours at a room temperature.)
4 | CCCCCCC(CCCC)C(=O)OC(CC)c1ccc(-c2ccc3c(c2)sc2c4ccc(-c5ccc(C(CC)OC(=O)C(CCCC)CCCCCC)s5)cc4sc32)s1 (stereo not shown) [Example 13] | A (No precipitation of a solute was observed when a precursor was dissolved in each solution so as to be contained in a concentration of 5% by mass, and then left to stand for 12 hours at a room temperature.)
5 | CCCCCCC(CCCC)C(=O)OC(CC)c1ccc(-c2ccc3c(c2)sc2c4ccc(-c5ccc(C(CC)OC(=O)C(CCCC)CCCCCC)cc5)cc4sc32)cc1 (stereo not shown) [Example 14] | A (No precipitation of a solute was observed when a precursor was dissolved in each solution so as to be contained in a concentration of 5% by mass, and then left to stand for 12 hours at a room temperature.)
6 | CCCCCCC(CCCC)C(=O)OC(CC)c1ccc(-c2ccc(-c3ccc4c(c3)sc3c5ccc(-c6ccc(-c7ccc(C(CC)OC(=O)C(CCCC)CCCCCC)s7)s6)cc5sc43)s2)s1 (stereo not shown) [Example 15] | A (No precipitation of a solute was observed when a precursor was dissolved in each solution so as to be contained in a concentration of 5% by mass, and then left to stand for 12 hours at a room temperature.)
7 | CCCCSC(=S)OC(CC)c1ccc(-c2ccc3c(c2)sc2c4ccc(-c5ccc(C(CC)OC(=S)SCCCC)s5)cc4sc32)s1 (stereo not shown) [Example 16] | A (No precipitation of a solute was observed when a precursor was dissolved in each solution so as to be contained in a concentration of 5% by mass, and then left to stand for 12 hours at a room temperature.)
